Experiments:
rat VPA model of autism [1] = test: Muscle thickness in rat colonic tissue (H&E histology), VPA rat model; format: in vivo; conditions: for Average Muscle Thickness: VPA in utero
Procedure: Five animals were chosen at random from each of the agreed treatment groups. Colon tissue was collected after euthanasia, weighted, flushed using cold sterile saline, and divided into three sections. One distal sample (approx. 1 cm×1 cm) was employed for intestinal myeloperoxidase (MPO) activity as described below by Berand Ltd. This sample was weighed and stored at −80° C. until use. A second proximal colon sample (approx. 1 cm×5 cm) was prepared for histological analysis by collection using the Swiss roll technique, placed into a cassette for paraffin embedding and preservation in 10% formalin solution for 24 hours. They were then transferred into 70% ethanol solution until paraffin embedded. These samples were shipped in 70% ethanol solution to Transpharmation Ltd at trinity College Dublin, Ireland for further processing. Haematoxylin & eosin staining was performed on the tissue before imaging. Five images were taken from each animal at 1.25× magnification. Using ImageJ the thickness of the muscle layer was measured at 5 locations throughout the section. A third medial section of colon (approx. 1 cm×2.5 cm) was frozen in liquid nitrogen for the analysis of cytokine expression and was shipped at minus 80° C. to Transpharmation Ltd at Trinity College Dublin, Ireland.
Staining was performed using the Haematoxylin and Eosin kit from Vector Laboratories (Cat. No. H-3502). Sections were deparaffinized and rehydrated by washing in xylene (3×5 min), 100% ethanol (1 min), 96% ethanol (1 min) and distilled water (2 min). Each section was fully covered in haematoxylin stain and left for 5 min before being washed twice in distilled water for 15 s. […]
Sections were imaged using an Olympus BX51 microscope at a magnification of 1.25×. Images were then analysed using ImageJ software. Thickness of muscle were measured from luminal surface to muscularis mucosa and from luminal surface to external muscle layer. […]
For the histological analysis of colonic tissue, statistical analysis was performed using GraphPad Prism 9. Normality was assessed using the Shapiro-Wilk test. […]

rat VPA model of autism [2] = test: Gastrointestinal permeability (P33), FITC-dextran in plasma, VPA rat model; format: in vivo; design: key to gastrointestinal permeability: +: improvement; Ø: no change
Procedure: (§1) In the first study, a sub-chronic 8-day dosing schedule was employed with the test compound CBD administered alone (10, 30 and 60 mg/kg, p.o. VPA/CBD; dose volume 5 ml/kg). Control animals were administered sterile saline (0.9% w/v, i.p.) in utero and the vehicle control (ethanol: Kolliphor HS-15:0.9% saline (1:1:18, v/v/v) p.o. VEH/VEH). The test compound and vehicle control were administered to the animals once daily for 7 days prior to, and once again on each day of behavioural assessment, 60 minutes prior to test which consisted of a battery of behavioural paradigms: P30 social play and bottle brush test, P31-32 open field exploratory behaviour. A reference positive control, the atypical antipsychotic risperidone (0.125 mg/kg, i.p., once per day for 8 days prior to and for duration of behavioural testing), was included in study one for comparison. Subsequent to behavioural analysis the effect of CBD on gastrointestinal permeability was evaluated four hours following oral administration of fluorescein isothiocyanate-labelled dextran measured in plasma on postnatal day 33. On postnatal day 34, 60 minutes post a final treatment with the test agents, animals were humanely euthanised and samples collected to evaluate inflammatory biomarkers, gastrointestinal function and histology. 5 In the second study, the sub-optimal dose of CBD (30 mg/kg, p.o.) was evaluated in combination with administration of THC at increasing concentration (0.75, 1.5 and 3 mg/kg, p.o. VPA/CBD+THC). Comparison was made to CBD administered alone at the sub-optimal and effective doses (30 and 60 mg/kg, p.o.) and to vehicle controls as per study one. Behavioural and gastrointestinal readouts were examined as per study one with terminal samples collected on the final day of the experiment.
This assay is an indirect measure of total intestinal permeability. Animals are given an oral gavage of a fluorescently labelled small molecule (FITC-dextran), and at a subsequent timepoint the difference in fluorescence pre- and post-gavage is measured in plasma (Thevaranjan et al., 2017). Prior to gavage, a 50 μl sample of blood was collected by tail vein puncture. Animals then received 500 μl of 80 mg/ml FITC dextran (4 kDa Merck Ireland) by oral gavage and four hours later a second tail vein blood sample was collected. Tail vein blood sampling is facilitated through use of local anaesthetic EMLA cream following sterilisation of the tail. Blood samples were treated with 15% v/v acid-citrate-dextrose solution as an anticoagulant (38 mM citric acid, 107 mM sodium citrate, 136 mM dextrose), then mixed thoroughly by inversion and centrifuged at 5,000 rpm for 10 minutes. The plasma supernatant was transferred to microfuge tubes stored protected from light at 4° C. Each pre- and post-test plasma sample was diluted 1:5 in 1×PBS and a 100 μl aliquot was transferred to a 96-well plate. Readings of relative fluorescence units by a spectrophotometer were measured in duplicate and averaged. Fluorescence was determined at 530 nm with excitation at 485 nm. Permeability was expressed as relative fluorescence units between the groups being compared, determined by subtracting the PBS blank fluorescence from all samples and then subtracting the post-gavage fluorescence from the pre-gavage fluorescence. Treatment groups were prepared and analysed according to a blocked design to prevent bias.

[3] = system: rodent in utero VPA model of autism; test: Behavioural changes in rodent in utero VPA model of autism (overall conclusion); format: in vivo, rat; conditions: sub-chronic treatment with CBD alone, p.o.
Procedure: as §1, with “A reference positive control, the atypical antipsychotic risperidone (0.125 mg/kg, i.p., once per day for 8 days prior to and for duration of behavioural testing), was included in study one for comparison.” left out, “On postnatal day 34, 60 minutes post a final treatment with the test agents, animals were humanely euthanised and samples collected to evaluate inflammatory biomarkers, gastrointestinal function and histology.” left out, “Comparison was made to CBD administered alone at the sub-optimal and effective doses (30 and 60 mg/kg, p.o.) and to vehicle controls as per study one.” left out
Two experimental studies carried out 1). that established the effective dose of CBD and 2). determined the additive effect of CBD in combination with THC at increasing ratios. […]

With `C=C(C)[C@@H]1CCC(C)=C[C@H]1c1c(O)cc(CCCCC)cc1O` [CBD, cannabidiol] the “Average Muscle Thickness” value (rat VPA model of autism [1]; CBD 30 mg/kg) was 220.4 μm, the “Average Muscle Thickness” value (rat VPA model of autism [1]; CBD 60 mg/kg) was 207.2 μm and the “thinning of colonic muscle” value (rat VPA model of autism [1]; VPA rats, treatment with CBD (30, 60 mg/kg)) was “attenuated”. For the same compound, the gastrointestinal permeability (rat VPA model of autism [2]; cohort one, CBD 10 mg/kg p.o.) was “Ø”, the gastrointestinal permeability (rat VPA model of autism [2]; cohort one, CBD 30 mg/kg p.o.) was “+” and the gastrointestinal permeability (rat VPA model of autism [2]; cohort one, CBD 60 mg/kg p.o.) was “+”. The gastrointestinal permeability (rat VPA model of autism [2]; cohort two, CBD 30 mg/kg, THC 0 mg/kg p.o.) was “Ø”, the gastrointestinal permeability (rat VPA model of autism [2]; cohort two, CBD 60 mg/kg, THC 0 mg/kg p.o.) was “+” and the “increase in FITC dextran fluorescence (gastrointestinal permeability)” value (“increase in FITC dextran fluorescence” for short) (rat VPA model of autism [2]; study one, CBD 30 mg/kg, vs VPA/VEH) was “significantly prevented”. For the same compound, the “increase in FITC dextran fluorescence” value (rat VPA model of autism [2]; study one, CBD 60 mg/kg, vs VPA/VEH) was “significantly prevented”, the “increase in FITC dextran fluorescence” value (rat VPA model of autism [2]; study two, CBD 30 mg/kg) was “without effect” and the “increase in FITC dextran fluorescence” value (rat VPA model of autism [2]; study two, CBD 60 mg/kg) was “significantly prevented”. The minimum effective dose [3] was 60 mg/kg.
`Cc1nc2n(c(=O)c1CCN1CCC(c3noc4cc(F)ccc34)CC1)CCCC2` [Risperidone, risperidone] was tested, and the gastrointestinal permeability (rat VPA model of autism [2]; cohort one, risperidone 0.125 mg/kg i.p.) was “Ø” and the “increase in FITC dextran fluorescence” value (rat VPA model of autism [2]; study one, risperidone 0.125 mg/kg i.p.) was “without effect”.

From patent US20260207632A1, “C[…] THERAPY” (KINGDOM THERAPEUTICS LIMITED, priority 2022, published 2026)
